Where a SMILES comes first, the peptide text is derived from it.
Experiments:
[1] = system: HIV-1 IIIB; test: Anti-HIV activity: protection of MT-2 cells from viral-induced cytopathic effect, neutral red uptake; assay type: cell-based; details: Table 2, CPE after three days
Protocol: Dried melanins were analyzed for anti-HIV activity essentially as described by Montefiori, et al., 1988, J. Clin. Microbiol. […] In brief, the antiviral activities of the various melanins and melanin derivatives described in the present examples were measured in 96-well microdilution plates. Two-fold serial dilutions of melanins were made in triplicate in a total of 100 μl growth medium (RPMI-1640 containing 12% host-inactivated fetal bovine serum and 50 μg gentamicin/ml) per well. MT-2 cells (5×10^4) in 100 μl of growth medium were added to each well and incubated for 10 minutes. Fifty microliters of virus (5×10^4 TCID50/50 μl) were then added to all wells except for one row of eight noncytopathic control wells; these received growth medium in place of virus. Viral-induced cytopathic effect (CPE) was quantified three days later by vital dye (neutral red) uptake in remaining viable cells. Neutral red uptake is a linear function of cell viability with A540 of 0.025 to 0.85 corresponding to 2×10^4 to 25×10^4 viable cells/well (Montefiori, et al., 1988). Percent protection is defined as the difference in A540 between test wells (cells+melanin+virus) and virus control wells (cells+virus) divided by the difference in between cell control wells (cells only) and virus control wells.

[2] = system: HIV-1 (111a); parameters: unit not given here; details: Table 1; cited from earlier work
[3] = system: HIV-2 (ROD); parameters: unit not given here; details: Table 1; cited from earlier work

Compound | Effective Dose 50 EC50 [1] [µg/mL] | 50% inhibitory concentration IC50, HIV-1 (111a) [2] | 50% inhibitory concentration IC50, HIV-2 (ROD) [3]
NCC(=O)N[C@@H](Cc1ccc(O)cc1)C(=O)O [Gly-Tyr] (H-Gly-Tyr-OH) | >50 | – | –
á-cyclodextrin hexasulfate | – | 26.2 | 1.9
á-cyclodextrin tetradecasulfate | – | 0.8 | 1.0
â-cyclodextrin heptasulfate | – | 3.0 | 1.8
ã-cyclodextrin hexadecasulfate | – | 0.2 | 0.4
ã-cyclodextrin octasulfate | – | 0.6 | 1.6

Source: US6440691B1, “Melanins with improved ability to inhibit HIV replication” (Large Scale Biology Corporation, priority 1997, dated 2002)
